The Kd is the free concentration of one partner at which half of the binding sites on the other are occupied at equilibrium, for simple one-to-one binding. The term IC50 denotes the midpoint of a concentration-inhibition curve.

In experiment [1] the target is T1, SOS1 catalytic domain (residues 564-1049) (Homo sapiens, UniProt Q07889).
T1 sequence (Q07889 564-1049): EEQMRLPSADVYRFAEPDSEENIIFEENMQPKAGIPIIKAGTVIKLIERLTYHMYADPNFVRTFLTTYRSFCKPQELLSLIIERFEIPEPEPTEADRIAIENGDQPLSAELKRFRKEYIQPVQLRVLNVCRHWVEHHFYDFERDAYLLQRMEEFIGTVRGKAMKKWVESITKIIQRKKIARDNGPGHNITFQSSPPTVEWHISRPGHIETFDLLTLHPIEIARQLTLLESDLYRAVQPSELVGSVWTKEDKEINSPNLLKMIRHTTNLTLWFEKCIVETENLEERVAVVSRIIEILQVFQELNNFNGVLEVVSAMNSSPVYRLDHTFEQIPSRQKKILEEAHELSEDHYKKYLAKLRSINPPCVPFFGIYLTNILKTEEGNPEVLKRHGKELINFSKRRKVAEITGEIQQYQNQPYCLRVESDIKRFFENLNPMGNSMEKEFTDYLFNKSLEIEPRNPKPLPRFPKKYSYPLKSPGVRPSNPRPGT
Briefly: SOS1 SPR binding affinity assay (Biacore 8K). As to conditions: avi-tagged SOS1 catalytic domain immobilized on streptavidin chip; equilibrium 1:1 binding fit; read-out: SOS1 SPR Equilibrium Kd. A general note: In SPR one partner is held on a chip, and binding of the other changes the refractive index at the surface.

The test system of experiment [2] is SOS1 function in cells: cellular pERK in PC-9 cells (EGFR Ex19Del). Nature of the experiment: pERK potency assay in PC-9 cells (AlphaLISA SureFire Ultra p-ERK1/2). Format: cell-based. To be noted: Homo sapiens, PC-9, 1 h, 1 hour incubation. On the procedure: The purpose of this assay is tomeasure the ability of test compounds to inhibit SOS1 function in cells. SOS1 activates RAS proteins by catalyzing the conversion of RAS-GDP to RAS-GTP in response to receptor tyrosine kinase activation. […] The procedure described below measures the level of cellular pERK in response to test compounds in PC-9 cells (EGFR Ex19Del).
PC-9 cells were grown and maintained using media and procedures recommended by the ATCC. On the day prior to compound addition, cells were plated in 384-well cell culture plates (40 μL/well) and grown overnight in a 37° C., 5% CO2 incubator. Test compounds were prepared in 10, 3-fold dilutions in DMSO, with a top concentration of 10 mM. On the day of the assay, 40 nL of test compound was added to each well of cell culture plate using an Echo550 liquid handler (LabCyte). Concentrations of test compound were tested in duplicate with highest test concentration being 10 μM. After compound addition, cells were incubated for 1 hour at 37° C., 5% CO2. Following incubation, culture medium was removed and cells were washed once with phosphate buffered saline.
Cellular pERK level was determined using the AlphaLISA SureFire Ultra p-ERK1/2 Assay Kit (PerkinElmer). Cells were lysed in 25 μL lysis buffer, with shaking at 600 RPM at room temperature for 15 minutes. Lysate (10 μL) was transferred to a 384-well Opti-plate (PerkinElmer) and 5 μL acceptor mix was added. The plate was centrifuged at 1000 RPM for 1 minute, and incubated in the dark for 2 hours. Following this incubation, 5 μL of donor mix was added, the plate was sealed and centrifuged at 1000 RPM for 1 minute, and the mixture was incubated for 2 hours at room temperature. Signal was read on an Envision plate reader (PerkinElmer) using standard AlphaLISA settings. Analysis of raw data was carried out in Excel (Microsoft) and Prism (GraphPad). Signal was plotted vs. the decadal logarithm of compound concentration, and IC50 was determined by fitting a 4-parameter sigmoidal concentration response model.
(In general: Alpha assays give light when donor and acceptor beads are brought close together.)

The target in experiment [3] is T2, SOS1 nucleotide exchange of wild-type KRAS (SOS1 catalytic domain residues 564-1049; KRAS residue 1-169) (Homo sapiens, UniProt Q07889).
T2 sequence (Q07889 564-1049): T1 sequence (Q07889 564-1049)
Briefly: Inhibition of SOS1 nucleotide exchange activity of KRAS (TR-FRET). Format: biochemical. As to conditions: SOS1 nucleotide exchange of wild-type KRAS; three replicates; four-parameter logistic fit; read-out: TR-FRET IC50.

On to `C[C@@H](Nc1ncnc2c1cc(-c1ccnnc1)c(=O)n2C)c1cccc(C(F)F)c1F` [Example 21, (R)-4-((1-(3-(difluoromethyl)-2-fluorophenyl)ethyl)amino)-8-methyl-6-(pyridazin-4-yl)pyrido[2,3-d]pyrimidin-7(8H)-one], for which the Kd in experiment [1] came to 32.7 nM. For the same compound, the figures for the half-maximal inhibitory concentration (IC50) in experiment [2] and in experiment [3] were 136 nM and 18 nM, respectively.
The matching figures for `CC(=O)N1CCC(c2cc3c(N[C@H](C)c4cc(C(F)(F)F)cc(N)c4F)ncnc3n(C)c2=O)CC1` [Example 15, 6-(1-acetyl-4-piperidyl)-4-[[(1R)-1-[3-amino-2-fluoro-5-(trifluoromethyl)phenyl]ethyl]amino]-8-methyl-pyrido[2,3-d]pyrimidin-7-one]: 168 nM, 391 nM and 90.4 nM.
Consider `C[C@@H](Nc1ncnc2c1cc(C1(N)CCOCC1)c(=O)n2C)c1cccc(C(F)F)c1F` [Example 31, 6-(4-aminooxan-4-yl)-4-{[(1R)-1-[3-(difluoromethyl)-2-fluorophenyl]ethyl]amino}-8-methyl-7H,8H-pyrido-[2,3-d]pyrimidin-7-one], for which the Kd in experiment [1] was 42.8 nM. Moreover, the IC50 in experiment [3] was 31.5 nM.
Turning to `C[C@@H](Nc1ncnc2c1cc(C1(F)CCS(=O)(=O)CC1)c(=O)n2C)c1cccc(C(F)F)c1F` [Example 29, 4-(4-{[(1R)-1-[3-(difluoromethyl)-2-fluorophenyl]ethyl]amino}-8-methyl-7-oxo-7H,8H-pyrido[2,3-d]-pyrimidin-6-yl)-4-fluoro-1λ^6-thiane-1,1-dione], in experiment [1], the Kd came to 36 nM. Further, the IC50 in experiment [3] turned out to be 50.1 nM.
For the compound `C[C@@H](Nc1ncnc2c1cc(N1CCOCC1)c(=O)n2C)c1cccc(C(F)(F)CO)c1` [Example 2, (R)-4-((1-(3-(1,1-difluoro-2-hydroxyethyl)phenyl)ethyl)amino)-8-methyl-6-morpholinopyrido[2,3-d]pyrimidin-7(8H)-one], the Kd in experiment [1] came to 7.36 nM. In addition, the IC50 in experiment [3] was determined as 12.9 nM.
With `CC(=O)N1CCC(c2cc3c(N[C@H](C)c4cc(N)cc(C(F)(F)F)c4F)ncnc3n(C)c2=O)CC1` [Example 19, 6-(1-acetyl-4-piperidyl)-4-[[(1R)-1-[5-amino-2-fluoro-3-(trifluoromethyl)phenyl]ethyl]amino]-8-methyl-pyrido[2,3-d]pyrimidin-7-one], in experiment [1], the Kd came to 32.4 nM. In addition, the concentration for half-maximal inhibition (IC50) was found to be 49.2 nM in experiment [2] and 12.3 nM in experiment [3].
Turning to `Cc1nc(N[C@H](C)c2cccc(C(F)(F)CO)c2)c2cc(C3=CCOCC3)c(=O)n(C)c2n1` [Example 3, (R)-4-((1-(3-(1,1-difluoro-2-hydroxyethyl)phenyl)ethyl)amino)-6-(3,6-dihydro-2H-pyran-4-yl)-2,8-dimethylpyrido[2,3-d]pyrimidin-7(8H)-one], the Kd in experiment [1] came out at 21.8 nM. Further, in experiment [3], the IC50 turned out to be 34.9 nM.
Turning to `Cc1nc(N[C@H](C)c2cc(N)cc(C(F)(F)F)c2)c2cc(C3=CCOCC3)c(=O)n(C)c2n1` [Example 7, (R)-4-((1-(3-amino-5-(trifluoromethyl)phenyl)ethyl)amino)-6-(3,6-dihydro-2H-pyran-4-yl)-2,8-dimethylpyrido[2,3-d]pyrimidin-7(8H)-one], the Kd in experiment [1] amounted to 117 nM. In addition, in experiment [3], the IC50 came out at 155 nM.
In the case of `C[C@@H](Nc1ncnc2c1cc(C1CCNCC1O)c(=O)n2C)c1cccc(C(F)F)c1F` (stereo partly drawn) [Example 34, 4-(((R)-1-(3-(difluoromethyl)-2-fluorophenyl)ethyl)amino)-6-(3-hydroxypiperidin-4-yl)-8-methylpyrido[2,3-d]pyrimidin-7(8H)-one], the Kd in experiment [1] stood at 72.9 nM. For the same compound, the concentration for half-maximal inhibition (IC50) in experiment [3] is 62.7 nM.
For `C[C@@H](Nc1ncnc2c1cc(C1=CCS(=N)(=O)CC1)c(=O)n2C)c1cccc(C(F)F)c1F` (stereo partly drawn) [Example 23, 4-(((R)-1-(3-(difluoromethyl)-2-fluorophenyl)ethyl)amino)-6-(1-imino-1-oxido-1,2,3,6-tetrahydro-1λ^6-thiopyran-4-yl)-8-methylpyrido[2,3-d]pyrimidin-7(8H)-one], the Kd in experiment [1] came to 19.8 nM. Moreover, the IC50 in experiment [3] amounted to 20.9 nM.
`Cc1nc(N[C@H](C)c2cccc(C(F)F)c2F)c2cc(C3CCN(C)CC3F)c(=O)n(C)c2n1` (stereo partly drawn) [Example 18, 4-[[(1R)-1-[3-(difluoromethyl)-2-fluoro-phenyl]ethyl]amino]-6-(3-fluoro-1-methyl-4-piperidyl)-2,8-dimethyl-pyrido[2,3-d]pyrimidin-7-one]: in experiment [1], the Kd turned out to be 16 nM. The IC50 in experiment [2] was 190 nM; in experiment [3] it was 5.79 nM.
As for `C[C@@H](Nc1ncnc2c1cc(C1(O)CCS(=O)(=O)CC1)c(=O)n2C)c1cccc(C(F)F)c1F` [Example 28, 4-(4-{[(1R)-1-[3-(difluoromethyl)-2-fluorophenyl]-ethyl]amino}-8-methyl-7-oxo-7H,8H-pyrido[2,3-d]pyrimidin-6-yl)-4-hydroxy-1λ^6-thiane-1,1-dione], the dissociation constant Kd in experiment [1] is 45.1 nM. The IC50 in experiment [3] came to 20.6 nM.
The matching figures for `C[C@@H](Nc1ncnc2c1cc(C1CC3(C1)CS(=O)(=O)C3)c(=O)n2C)c1cccc(C(F)F)c1F` [Example 33, 6-(4-{[(1R)-1-[3-(difluoromethyl)-2-fluorophenyl]ethyl]amino}-8-methyl-7-oxo-7H,8H-pyrido[2,3-d]pyrimi-din-6-yl)-2λ^6-thiaspiro[3.3]heptane-2,2-dione]: 33.4 nM and 29.5 nM.
Take `C[C@@H](Nc1ncnc2c1cc(N1CCOCC1)c(=O)n2C)c1cccc(C(F)(F)F)c1` [Example 13, 8-methyl-6-(morpholin-4-yl)-4-{[(1R)-1-[3-(trifluoromethyl)phenyl]-ethyl]amino}-7H,8H-pyrido[2,3-d]pyrimidin-7-one]: the Kd in experiment [1] is 28.3 nM. For the same compound, the half-maximal inhibitory concentration (IC50) is 321 nM in experiment [2] and 29.4 nM in experiment [3].
Take `C[C@@H](Nc1ncnc2c1cc(C(=O)N1CC3CCC1CO3)c(=O)n2C)c1cccc(C(F)F)c1F` (stereo partly drawn) [Example 26-18]: the Kd in experiment [1] came out at 150 nM. The IC50 in experiment [3] came out at 78.6 nM.
The matching figures for `Cc1nc(N[C@H](C)c2cccc(C(F)F)c2F)c2cc(CN3CCOCC3)c(=O)n(C)c2n1` [Example 27, 4-{[(1R)-1-[3-(difluoromethyl)-2-fluorophenyl]ethyl]amino}-2,8-dimethyl-6-[(morpholin-4-yl)meth-yl]-7H,8H-pyrido[2,3-d]pyrimidin-7-one]: 550 nM and 192 nM.
As for `C[C@@H](Nc1ncnc2c1cc(C1CC[S+]([O-])CC1)c(=O)n2C)c1cccc(C(F)F)c1F` (stereo partly drawn) [Example 25, (R)-4-((1-(3-(difluoromethyl)-2-fluorophenyl)ethyl)amino)-8-methyl-6-(1-oxidotetrahydro-2H-thiopyran-4-yl)pyrido[2,3-d]pyrimidin-7(8H)-one], in experiment [1], the Kd is 19.4 nM. For the same compound, the IC50 in experiment [3] was 15.9 nM.
On to `C[C@@H](Nc1ncnc2c1cc(N1CCOCC1)c(=O)n2C)c1cc(N)cc(C(F)(F)F)c1` [Example 12, 4-{[(1R)-1-[3-amino-5-(trifluoromethyl)phenyl]ethyl]amino}-8-methyl-6-(morpholin-4-yl)-7H,8H-pyrido[2,3-d]pyrimidin-7-one], for which, in experiment [1], the Kd is 7.94 nM. Moreover, the IC50 came out at 101 nM in experiment [2] and 13.6 nM in experiment [3].

Source of the values: patent US20210139517A1, “BICYCLIC HETEROARYL COMPOUNDS AND USES THEREOF” (Revolution Medicines, Inc., priority 2019, published 2021).
